# Measured values reported in PubChem BioAssay AID248 (DTP/NCI, 2004).
# Values joined by “and” are separate entries in the source; they are usually repeats but may differ in a detail not shown here. Equal values may be shown once. Toxic doses and inconclusive results are not listed.
# System: L1210 leukemia ip in BDF1 mice, survival T/C
# Assay: NCI In Vivo Anticancer Drug Screen. Data for tumor model L1210 Leukemia (intraperitoneal) in B6D2F1 (BDF1) mice
# Conditions: higher = longer survival
# How it was run: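 Transplanted-tumor mice were given test agent; controls received vehicle only. Survival readings from the two groups were divided (treated over control).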
# [1] = endpoint: mean survival time, dose: 100.0 mg/kg/injection, schedule: Q01DX009 (ip), vehicle: saline with Tween-80
# [2] = endpoint: mean survival time, dose: 200.0 mg/kg/injection, schedule: Q01DX009 (ip), vehicle: saline with Tween-80
# [3] = endpoint: mean survival time, dose: 100.0 mg/kg/injection, schedule: Q04DX002 (ip), vehicle: Klucel (hydroxypropylcellulose) (HPC)
# [4] = endpoint: mean survival time, dose: 200.0 mg/kg/injection, schedule: Q04DX002 (ip), vehicle: Klucel (hydroxypropylcellulose) (HPC)
# [5] = endpoint: mean survival time, dose: 400.0 mg/kg/injection, schedule: Q04DX002 (ip), vehicle: Klucel (hydroxypropylcellulose) (HPC)
# [6] = endpoint: mean survival time, dose: 100.0 mg/kg/injection, schedule: Q04DX003 (ip), vehicle: saline with Tween-80
# [7] = endpoint: mean survival time, dose: 50.0 mg/kg/injection, schedule: Q01DX009 (ip), vehicle: Klucel (hydroxypropylcellulose) (HPC)
# [8] = endpoint: mean survival time, dose: 100.0 mg/kg/injection, schedule: Q01DX009 (ip), vehicle: Klucel (hydroxypropylcellulose) (HPC)
# [9] = endpoint: mean survival time, dose: 200.0 mg/kg/injection, schedule: Q01DX009 (ip), vehicle: Klucel (hydroxypropylcellulose) (HPC)
# [10] = endpoint: mean survival time, dose: 100.0 mg/kg/injection, schedule: Q01DX001 (ip), vehicle: carboxymethylcellulose (CMC)
# [11] = endpoint: mean survival time, dose: 200.0 mg/kg/injection, schedule: Q01DX001 (ip), vehicle: carboxymethylcellulose (CMC)
smiles,measurement,setting,value
O=C(Nc1ccc(C2=NCCN2)cc1)c1ccc(CNc2ccc(C3=NCCN3)cc2)cc1,T/C,"endpoint: mean survival time, dose: 0.5 mg/kg/injection, schedule: Q01DX Z (ip), vehicle: water",93 % of control
same,T/C,"endpoint: mean survival time, dose: 1.0 mg/kg/injection, schedule: Q01DX Z (ip), vehicle: water",96 % of control
same,T/C,"endpoint: mean survival time, dose: 2.0 mg/kg/injection, schedule: Q01DX Z (ip), vehicle: water",113 % of control
same,T/C,"endpoint: mean survival time, dose: 4.0 mg/kg/injection, schedule: Q01DX Z (ip), vehicle: water",111 % of control
same,T/C,"endpoint: mean survival time, dose: 6.25 mg/kg/injection, schedule: Q01DX Z (ip), vehicle: water",159 % of control
same,T/C,"endpoint: mean survival time, dose: 12.5 mg/kg/injection, schedule: Q01DX Z (ip), vehicle: water",276 % of control
same,T/C,"endpoint: mean survival time, dose: 25.0 mg/kg/injection, schedule: Q01DX Z (ip), vehicle: water",188 % of control
CSc1ccc(NC(=O)Nc2ccc(S(N)(=O)=O)cc2)cc1,T/C,[1],106 % of control
same,T/C,"endpoint: mean survival time, dose: 100.0 mg/kg/injection, schedule: Q04DX003 (ip), vehicle: Klucel (hydroxypropylcellulose) (HPC)",104 % of control
same,T/C,[2],95 % of control
same,T/C,"endpoint: mean survival time, dose: 200.0 mg/kg/injection, schedule: Q04DX003 (ip), vehicle: Klucel (hydroxypropylcellulose) (HPC)",100 % of control
same,T/C,"endpoint: mean survival time, dose: 400.0 mg/kg/injection, schedule: Q01DX009 (ip), vehicle: saline with Tween-80",102 % of control
same,T/C,"endpoint: mean survival time, dose: 400.0 mg/kg/injection, schedule: Q04DX003 (ip), vehicle: Klucel (hydroxypropylcellulose) (HPC)",98 % of control
C[C@@H]1CN1C1=CC(=O)C(N2C[C@H]2C)=CC1=O,T/C,"endpoint: mean survival time, dose: 6.25 mg/kg/injection, schedule: Q04DX003 (ip), vehicle: saline with Tween-80",117 % of control
same,T/C,"endpoint: mean survival time, dose: 12.5 mg/kg/injection, schedule: Q04DX003 (ip), vehicle: saline with Tween-80",117 % of control
C#CCC1CCCC/C1=N\Nc1ccc([N+](=O)[O-])cc1[N+](=O)[O-] (stereo not drawn),T/C,[3],96 % of control
same,T/C,[4],103 % of control
same,T/C,[5],92 % of control
C[Si](C)(C)C1C2c3ccccc3C1C1(C#N)C(=O)C(Cl)=C(Cl)C(=O)C21C#N (stereo not drawn),T/C,[6],93 % of control
Cc1ccc(C(=O)O)cc1-n1c(-c2ccc(Cl)cc2)nnc1-c1ccc(Br)cc1,T/C,[7],92 % of control
same,T/C,"endpoint: mean survival time, dose: 100.0 mg/kg/injection, schedule: Q01DX001 (ip), vehicle: Klucel (hydroxypropylcellulose) (HPC)",97 % of control
same,T/C,[8],93 % of control
same,T/C,"endpoint: mean survival time, dose: 200.0 mg/kg/injection, schedule: Q01DX001 (ip), vehicle: Klucel (hydroxypropylcellulose) (HPC)",96 % of control
same,T/C,[9],93 % of control
O=C([O-])c1ccccc1[S+](c1ccccc1)c1ccccc1,T/C,"endpoint: mean survival time, dose: 18.0 mg/kg/injection, schedule: Q04DX002 (ip), vehicle: saline with Tween-80",104 % of control
O=C1OC(c2ccccc2)(c2ccccc2)c2sccc21,T/C,"endpoint: mean survival time, dose: 50.0 mg/kg/injection, schedule: Q01DX009 (ip), vehicle: saline with Tween-80",91 % of control
same,T/C,[1],102 % of control
same,T/C,[2],94 % of control
O=c1cc(C(F)(F)F)[nH]c2ccccc12,T/C,"endpoint: mean survival time, dose: 25.0 mg/kg/injection, schedule: Q04DX002 (ip), vehicle: Klucel (hydroxypropylcellulose) (HPC)",106 % of control
same,T/C,"endpoint: mean survival time, dose: 50.0 mg/kg/injection, schedule: Q04DX002 (ip), vehicle: Klucel (hydroxypropylcellulose) (HPC)",98 % of control
N#C/C(=C/c1ccccc1)C(=O)O,T/C,"endpoint: mean survival time, dose: 50.0 mg/kg/injection, schedule: Q01DX001 (ip), vehicle: carboxymethylcellulose (CMC)",87 % of control
same,T/C,[10],96 % of control
same,T/C,[11],107 % of control
N#CCCN(C(=O)Nc1cc(C(F)(F)F)ccc1Cl)C1CCCCC1,T/C,[3],96 % of control
same,T/C,[4],96 % of control
same,T/C,[5],105 % of control
Nc1ccn(C2OC(COP(=O)(O)O)C(O)C2O)c(=O)n1 (stereo not drawn),T/C,"endpoint: mean survival time, dose: 2.5 mg/kg/injection, schedule: Q01DX009 (ip), vehicle: other",108 % of control
same,T/C,"endpoint: mean survival time, dose: 5.0 mg/kg/injection, schedule: Q01DX009 (ip), vehicle: other",96 % of control
same,T/C,"endpoint: mean survival time, dose: 10.0 mg/kg/injection, schedule: Q01DX009 (ip), vehicle: other",116 % of control
same,T/C,"endpoint: mean survival time, dose: 18.0 mg/kg/injection, schedule: Q01DX Z (ip), vehicle: saline",193 % of control
same,T/C,"endpoint: mean survival time, dose: 26.5 mg/kg/injection, schedule: Q01DX Z (ip), vehicle: saline",195 % of control
same,T/C,"endpoint: mean survival time, dose: 40.0 mg/kg/injection, schedule: Q01DX Z (ip), vehicle: saline",218 % of control
same,T/C,"endpoint: mean survival time, dose: 60.0 mg/kg/injection, schedule: Q01DX Z (ip), vehicle: saline",157 % of control
same,T/C,"endpoint: median survival time, dose: 22.0 mg/kg/injection, schedule: Q01DX009 (ip), vehicle: sodium bicarbonate",171 % of control
same,T/C,"endpoint: median survival time, dose: 33.0 mg/kg/injection, schedule: Q01DX009 (ip), vehicle: sodium bicarbonate",177 % of control
same,T/C,"endpoint: median survival time, dose: 46.0 mg/kg/injection, schedule: Q01DX009 (ip), vehicle: sodium bicarbonate",177 % of control
same,T/C,"endpoint: median survival time, dose: 66.0 mg/kg/injection, schedule: Q01DX009 (ip), vehicle: sodium bicarbonate",181 % of control
Cc1ccc(NC(=O)N(CCCCl)N=O)cc1,T/C,"endpoint: mean survival time, dose: 25.0 mg/kg/injection, schedule: Q01DX009 (ip), vehicle: Klucel (hydroxypropylcellulose) (HPC)",103 % of control
same,T/C,[7],93 % of control
same,T/C,"endpoint: mean survival time, dose: 59.0 mg/kg/injection, schedule: Q01DX009 (ip), vehicle: carboxymethylcellulose (CMC)",120 % of control
same,T/C,"endpoint: mean survival time, dose: 88.0 mg/kg/injection, schedule: Q01DX009 (ip), vehicle: carboxymethylcellulose (CMC)",117 % of control
same,T/C,[10],115 % of control
same,T/C,[8],97 % of control
same,T/C,"endpoint: mean survival time, dose: 118.0 mg/kg/injection, schedule: Q01DX001 (sc), vehicle: olive oil, sesame oil, peanut oil",107 % of control
same,T/C,"endpoint: mean survival time, dose: 133.0 mg/kg/injection, schedule: Q01DX009 (ip), vehicle: carboxymethylcellulose (CMC)",88 % of control
same,T/C,"endpoint: mean survival time, dose: 177.0 mg/kg/injection, schedule: Q01DX001 (ip), vehicle: carboxymethylcellulose (CMC)",100 % of control and 113 % of control
same,T/C,"endpoint: mean survival time, dose: 177.0 mg/kg/injection, schedule: Q01DX001 (sc), vehicle: olive oil, sesame oil, peanut oil",107 % of control
same,T/C,[11],121 % of control
same,T/C,[9],97 % of control
same,T/C,"endpoint: mean survival time, dose: 266.0 mg/kg/injection, schedule: Q01DX001 (ip), vehicle: carboxymethylcellulose (CMC)",105 % of control
same,T/C,"endpoint: mean survival time, dose: 266.0 mg/kg/injection, schedule: Q01DX001 (sc), vehicle: olive oil, sesame oil, peanut oil",102 % of control
same,T/C,"endpoint: mean survival time, dose: 400.0 mg/kg/injection, schedule: Q01DX001 (ip), vehicle: carboxymethylcellulose (CMC)",113 % of control and 119 % of control
same,T/C,"endpoint: mean survival time, dose: 400.0 mg/kg/injection, schedule: Q01DX001 (sc), vehicle: olive oil, sesame oil, peanut oil",107 % of control
S=P(c1ccccc1)(c1ccccc1)c1cccc2ccccc12,T/C,"endpoint: mean survival time, dose: 100.0 mg/kg/injection, schedule: Q01DX001 (ip), vehicle: saline",100 % of control
same,T/C,"endpoint: mean survival time, dose: 200.0 mg/kg/injection, schedule: Q01DX001 (ip), vehicle: saline",94 % of control
same,T/C,"endpoint: mean survival time, dose: 400.0 mg/kg/injection, schedule: Q01DX001 (ip), vehicle: saline",94 % of control
C=C(C)CC(O)CCCCC (stereo not drawn),T/C,"endpoint: mean survival time, dose: 100.0 mg/kg/injection, schedule: Q04DX002 (ip), vehicle: saline",98 % of control
same,T/C,"endpoint: mean survival time, dose: 200.0 mg/kg/injection, schedule: Q04DX002 (ip), vehicle: saline",102 % of control
same,T/C,"endpoint: mean survival time, dose: 400.0 mg/kg/injection, schedule: Q04DX002 (ip), vehicle: saline",98 % of control
COC(=O)c1ccc([N+](=O)[O-])cc1O,T/C,[6],101 % of control
same,T/C,"endpoint: mean survival time, dose: 200.0 mg/kg/injection, schedule: Q04DX003 (ip), vehicle: saline with Tween-80",102 % of control
same,T/C,"endpoint: mean survival time, dose: 400.0 mg/kg/injection, schedule: Q04DX003 (ip), vehicle: saline with Tween-80",104 % of control
C=C(C)C[N+]1(CC)CCN=C1CCCCCCCCCCCCCCCCC (stereo not drawn),T/C,"endpoint: mean survival time, dose: 0.31 mg/kg/injection, schedule: Q01DX Z (ip), vehicle: saline",100 % of control
same,T/C,"endpoint: mean survival time, dose: 0.47 mg/kg/injection, schedule: Q01DX Z (ip), vehicle: saline",96 % of control
same,T/C,"endpoint: mean survival time, dose: 0.7 mg/kg/injection, schedule: Q01DX Z (ip), vehicle: saline",102 % of control
same,T/C,"endpoint: mean survival time, dose: 1.05 mg/kg/injection, schedule: Q01DX Z (ip), vehicle: saline",96 % of control
CCCCC(CCCC)NCCO,T/C,"endpoint: mean survival time, dose: 75.0 mg/kg/injection, schedule: Q01DX001 (ip), vehicle: carboxymethylcellulose (CMC)",98 % of control
same,T/C,"endpoint: mean survival time, dose: 150.0 mg/kg/injection, schedule: Q01DX001 (ip), vehicle: carboxymethylcellulose (CMC)",96 % of control
